Data reported in patent US6949679B1, “Polyamine transport inhibitors” (Universite Laval, priority 1998, dated 2005).

Tests used:
polyamine transporter = assay: Inhibition of [3H]spermidine uptake in CHO-K1 cells; format: cell-based, Chinese hamster; settings: [3H]spermidine as substrate
Protocol: To 1 ml of an extemporaneously prepared, DTT-free solution of MESC (20 mM in […]) were added 50 μl of 50 mM Tris-HCl (pH 7.0) and 105 μl of a 40 mM solution of either iodoacetamide, LY iodoacetamide or ASIB in a light-protected microcentrifuge tube, and the mixture was incubated for 2 hours at 37° C. […] Excess iodoacetamide was then inactivated by adding DTT to a final concentration of 40 mM and incubating the solution for 2 hours at 37° C. […] The effect of the respective DTT-inactivated iodoacetamide on spermidine transport was determined in parallel by incubating cells with the same reaction mixture from which MESC was omitted. […] J. Biol. […] Cells were then lysed with 200-μl aliquot of 1 N NaOH and incubated for 30 minutes at 60° C. After neutralization with 200 μl of 1 N HCl, radioactivity was determined from a 250-μl of the cell lysate by scintillation counting. Uptake activity was expressed per amount of total cellular protein as determined by the method of Bradford (Bradford, M. M. 1976. Anal. Biochem. 72: 248-254). […] K[…] Ki and Vmax values were then estimated by Lineweaver-Burke analysis. For competitive inhibitors, Ki values were also estimated by measuring uptake activity in the presence of logarithmically increasing concentrations of antagonist, and using the Cheng-Prusoff equation (Cheng, Y.-C. and Prusoff, W. H. 1973. Biochem. Pharmacol. 22: 3099-3108) by iterative curve fitting for a sigmoidal curve. For mixed competitive/noncompetitive inhibition, two methods were used to calculate kinetic constants. […] C. 1976. Enzymes, 3rd Ed., Academic Press, San Diego, Calif.). […] C. 1976. Enzymes, 3rd Ed., Academic Press, San Diego, Calif.). Intracellular Accumulation

ZR-75-1 cells [1] = assay: Intracellular accumulation of inhibitor and polyamine contents (HPLC) in ZR-75-1 cells; format: cell-based, human
ZR-75-1 cells [2] = assay: Effect on ZR-75-1 cell proliferation (11 days, DNA content); format: cell-based, human
Protocol: For growth studies, ZR-75-1 cells were cultured in MEZR medium or in phenol red-free RPMI 1640 supplemented with 2 mM L-glutamine, 1 mM sodium pyruvate, 15 mM Hepes, antibiotics, 1 nM 17β-estradiol, 0.5 μg of bovine insulin per ml and 5% (v/v) charcoal-treated fetal bovine serum (SD medium), as indicated in the text. When polyamines or polyamine analogs were added to serum-containing media, 1 mM aminoguanidine was added to inhibit bovine serum amine oxidase (BSAO) activity (Morgan, D. M. L. 1989, in The Physiology of Polyamines (Bachrach, U., and Heimer, Y. M. eds) Vol. I, pp. 203-229, CRC Press, Boca Raton). The effect of the transport inhibitors on cell growth was measured by incubating ZR-75-1 cells for 11 days in medium supplemented with antagonist, polyamines and/or 1 mM DFMO as indicated, followed by colorimetric determination of DNA content with 3,4-diaminobenzoic acid (Simard, J., Dauvois, S., Haagensen, D. E., Lėvesque C., Mėrand, Y. and Labriė, F. 1990. Endocrinology 126: 3223-3231). Medium was changed every other day in these experiments because of the slow reaction of the compound with an unknown component present in the IMEM and RPMI 1640 medium formulation.
The biocompatibility of DESC, MESC, and DEASC was thus evaluated during a long-term (11-day) incubation with ZR-75-1 cells grown in RPMI 1640 containing 10% (v/v) FBS in the absence and presence of 1 mM aminoguanidine. […] Weak growth inhibition caused by the mixed MESC-cysteamine disulfide, however, apparently involved degradation by a copper amine oxidase.

[3] = 200 μM compound + 200 μM CHX, 1 h
[4] = 200 μM compound + 200 μM CHX, 6 h

Compound | Ki (polyamine transporter) [µM] | Spermine intracellular content (ZR-75-1 cells [1]; 50 μM compound, 1 h) [nmol/mg protein] | DESC accumulation as % of accumulation measured for spermine under identical conditions (ZR-75-1 cells [1]; 200 μM DESC, 6-hour incubation) | DESC intracellular content (ZR-75-1 cells [1]; [3]) [nmol/mg protein] | Spermidine intracellular content (ZR-75-1 cells [1]; [3]) [nmol/mg protein] | Spermine intracellular content (ZR-75-1 cells [1]; [3]) [nmol/mg protein] | DESC intracellular content (ZR-75-1 cells [1]; [4]) [nmol/mg protein] | Spermine intracellular content (ZR-75-1 cells [1]; [4]) [nmol/mg protein] | Spermine intracellular content (ZR-75-1 cells [1]; 200 μM compound, 1 h) [nmol/mg protein] | Spermine intracellular content (ZR-75-1 cells [1]; 200 μM compound, 6 h) [nmol/mg protein] | Effect on cell growth (ZR-75-1 cells [2]; 50 μM, with or without 1 mM aminoguanidine) | Effect on cell growth (ZR-75-1 cells [2]; 200 μM) | Spermine intracellular content (ZR-75-1 cells [1]; 50 μM compound, 6 h) [nmol/mg protein] | Decrease in cell growth (ZR-75-1 cells [2]; 200 μM, not blocked by aminoguanidine) [%]
NCCCNCCCC(NCCCN)C(=O)NCCSSCCNC(=O)C(CCCNCCCN)NCCCN (stereo not drawn) [DESC, 2,2′-dithiobis(N-ethyl-spermine-5-carboxamide)] | 0.92 ± 0.15 | 8.27 ± 0.81 | about 1.5% | <0.01 | 0.75 ± 0.04 | 9.57 ± 0.31 | 0.10 | 9.55 ± 0.13 | 8.77 ± 0.79 | 8.66 ± 0.26 | only mildly growth inhibitory | abrupt, aminoguanidine-resistant increase in toxicity |  | 
NCCCNCCCC(NCCCN)C(=O)NCCS (stereo not drawn) [MESC, N-(2-mercaptoethyl)spermine-5-carboxamide] | 33.6 ± 7.2 | 7.77 ± 0.06 |  |  |  |  |  |  | 8.93 ± 0.53 | 8.32 ± 0.43 |  |  | 8.13 ± 0.17 | 35
